Laboratory results taken from US11207301B2, “Sphingosine 1 phosphate receptor agonists for neuroprotection” (RECEPTOS LLC, priority 2017, dated 2021).

Assays:
[1] = tested on: experimental autoimmune encephalomyelitis (EAE)-induced mouse model of Multiple Sclerosis (MS); experiment: Experimental autoimmune encephalomyelitis (EAE)-induced mouse model of multiple sclerosis, oral ozanimod; assay type: in vivo, C57BL/6 mice; settings: EAE mice
Text: (§1) In one embodiment, the S1P receptor agonist provides therapeutic benefit in the context of relapsing-remitting multiple sclerosis (RRMS), by down-modulating S1P receptor and resulting in retention of autoreactive lymphocytes in secondary lymphoid organs. As set forth in greater detail below, ozanimod activity on immune cell subsets was examined in the experimental autoimmune encephalomyelitis (EAE)-induced mouse model of Multiple Sclerosis (MS). C57BL/6 mice were immunized with MOG35-55 and pertussis toxin to initiate immune cell activation, migration to the spinal cord and neurodegeneration. Animals were treated with oral ozanimod either semi-therapeutically or therapeutically to investigate the impact on peripheral immune cell expansion and migration into the spinal cord. The plasma biomarker of CNS injury, neurofilament light (NfL), was measured at study termination.
as §1, with “Ozanimod” for “In one embodiment, the S1P receptor agonist provides therapeutic benefit in the context of relapsing-remitting multiple sclerosis (RRMS), by down-modulating S1P receptor and resulting in retention of autoreactive lymphocytes in secondary lymphoid organs. As set forth in greater detail below, ozanimod”

[2] = tested on: cuprizone-induced mouse model of demyelination; experiment: Cuprizone-induced mouse model of demyelination / neuroprotection; assay type: in vivo, C57BL/6 mice
Text: The effect of a S1P receptor agonist on spinal cord axial demyelination or reduction in axonal breaks can be assessed by measuring concentration of neurofilament light chain (NfL) in the plasma. NfL is released to the plasma following axonal injury and degeneration. Histological examination of axons with antineurofilament H non-phosphorylated mouse antibody SMI-32 can also be used to assess axonal demyelination or breaks. NfH is phosphorylated in healthy axons and unphosphorylated in damaged axons. In addition, the effects of ozanimod on the CNS were examined in vivo using the cuprizone-induced mouse model of demyelination and in vitro in primary rodent astrocytes. Efficacy of ozanimod or compound (2-R) was examined in the cuprizone-induced mouse model of neuroprotection. C57BL/6 mice were treated with cuprizone (0.3% weight/weight orally) and rapamycin (10 mg/kg intraperitoneally daily) to demyelinate axons in the brain and concurrently treated with ozanimod (0.1, 0.3, or 1 mg/kg) or compound (2-S) (1 mg/kg) by daily oral gavage to investigate its neuroprotective activity. Neuroprotection was assessed through examination of axonal pathology in the corpus callosum using SMI-32 (antineurofilament H non-phosphorylated mouse monoclonal antibody) staining, functional assessment through kinematic gait analysis and the plasma biomarker neurofilament light chain (NfL). Further, direct activity of ozanimod was examined in resting and activated primary rodent astrocytes in vitro.

[3] = tested on: relapsing multiple sclerosis (RMS) patients; experiment: Brain volume loss in phase 3 RMS studies SUNBEAM and RADIANCE Part B vs interferon beta-1a; assay type: in vivo, human
Text: As mentioned above, ozanimod is in clinical development for treatment of relapsing multiple sclerosis (RMS). Brain volume loss (BVL) correlates with and predicts disability and is thought to be a marker of long-term disease progression and cognitive impairment. Accordingly, reducing BVL is an important treatment goal. In this example, BVL results are reported from two similarly-designed phase 3 RMS studies.
SUNBEAM (N=1346) and RADIANCE Part B (N=1320) were randomised, double-blind, double-dummy, active-controlled, parallel-group studies of the efficacy (primary outcome annualised relapse rate) and safety of once-daily ozanimod 1 mg or 0.5 mg vs intramuscular interferon beta-1a (IFNβ-1a) 30 μg for ≥12 months (m) (SUNBEAM) or 24 m (RADIANCE). BVL was evaluated using the Jacobian integration method to assess changes in normalised whole brain, cortical grey matter, and thalamic volumes. Rank analysis of covariance was performed with treatment effects reported as percent reductions in median percent BVL from baseline.

[4] = RADIANCE (24 m), 1 mg once daily, p<0.0001
[5] = SUNBEAM (12 m), 1 mg once daily, p<0.0001

CC(C)Oc1ccc(-c2nc(-c3cccc4c3CC[C@@H]4NCCO)no2)cc1C#N [Ozanimod]
spinal cord inflammation and demyelination [1]: reduce spinal cord inflammation and demyelination | reduction of microglia expansion in the spinal cord ([1]; day 18-21 post-immunization): 75% | decrease of monocyte infiltration into the spinal cord ([1]; oral ozanimod): 65% | diminished Th1 and Th17 cell expansion in the periphery ([1]; oral ozanimod): 60-70% | reduction of the number of Th1 and Th17 cells in the spinal cord ([1]; oral ozanimod): ≥ 80% | plasma biomarker of CNS injury NfL ([1]; therapeutic dosing, at study termination, vehicle 3298±350, p=0.05): 2209 ± 393 pg/mL | overall kinematic gait score ([2]; 0.1, 0.3, or 1 mg/kg vs vehicle (FIG. 3)): significantly improved overall kinematic gait score | kinematic gait ([2]; cuprizone-induced demyelinated mice vs vehicle, 1 mg/kg (FIG. 2)): improved kinematic gait | neuroprotection, reduction in swollen and transected axons ([2]; cuprizone-induced mouse model): neuroprotective | slowing of cortical grey matter loss with respect to IFN ([3]; RADIANCE (24 m), 0.5 mg once daily, p<0.0001): 55.1% | slowing of whole BVL vs IFN ([3]; RADIANCE (24 m), 0.5 mg once daily, p=0.0001): 24.5% | slowing of thalamic BVL vs IFN ([3]; RADIANCE (24 m), 0.5 mg once daily, p=0.0008): 30.1% | slowing of cortical grey matter loss with respect to IFN [3, 4]: 58.3% | slowing of thalamic BVL vs IFN [3, 4]: 31.9% | slowing of whole BVL vs IFN [3, 4]: 26.6% | slowing of cortical grey matter loss with respect to IFN ([3]; SUNBEAM (12 m), 0.5 mg once daily, p<0.0001): 61.4% | slowing of thalamic BVL vs IFN ([3]; SUNBEAM (12 m), 0.5 mg once daily, p=0.0001): 34.3% | slowing of whole BVL vs IFN ([3]; SUNBEAM (12 m), 0.5 mg once daily, p=0.0615): 12.3% | slowing of cortical grey matter loss with respect to IFN [3, 5]: 83.8% | slowing of thalamic BVL vs IFN [3, 5]: 38.5% | slowing of whole BVL vs IFN [3, 5]: 32.5%
